Data from paper PMC11314561, “Design and Synthesis of Novel Aminoindazole-pyrrolo[2,3-b]pyridine Inhibitors of IKKα That Selectively Perturb Cellular Non-Canonical NF-κB Signalling” (Molecules, 2024).

Columns and labels:
[1] = system: IKKβ-mediated IκBα degradation in U2OS cells; assay: TNFα-stimulated IκBα degradation, Western blotting; type: cell-based; conditions: for effect on TNFα-stimulated IκBα degradation: 0.3–30 µM
Description: (§1) To assess the translation of the biochemical potencies and selectivities described above to a cell-based setting, exemplars from the series were initially examined for inhibitory action against IKKs in the U2OS osteosarcoma cell line. This cell type was utilised to represent cells with a proliferative phenotype dependent on the constitutively activated IKKα-mediated non-canonical NF-κB pathway. Compounds 5r [SU1261]
(§2) U2OS cells were cultured in McCoy’s 5A Modified Medium, and PC-3M-Luc-C6 prostate cancer cells were cultured in Minimum Essential Medium (MEM), each containing 10% (v/v) Foetal Calf Serum (FCS), L-glutamine ([…]), and penicillin/streptomycin (250 units/mL; 100 μg/mL) and incubated in a humidified atmosphere at 37 °C with 5% (v/v) CO2. Cells were grown to near confluence and prior to experimentation rendered quiescent by serum deprivation for 24 h.
(§3) To examine the potential impact of compounds on canonical NF-κB signalling, cells were then exposed to vehicle (DMSO; 0.05% (v/v)) or increasing concentrations of compounds (0.01–30 µM) for 1 h prior to treatment with TNF⍺ (20 ng/mL) for 30 min. Whole-cell extracts were prepared, and the status of IκB⍺, phospho-p65 (Ser536), p65, and phospho-p105 ([…]) was also assessed by Western blotting.
(§4) Each figure/panel of Western blotting data represents one of at least three separate experiments. Western blots were scanned and imaged using Adobe Photoshop 5.0.2 software and polypeptide bands were semi-quantified by scanning densitometry using the Scion Image program. Data were normalised to fold expression/inhibition relative to ‘agonist plus vehicle’ treatment and expressed as mean ± s.e.m. IC50 values were established by curve fitting using the Hill equation.
(§5) Figure 11 Compound 5r [SU1261] inhibits FCS-stimulated p100 phosphorylation (Ser866/870) with no impact on TNFα-stimulated IkBα degradation and limited impact on phosphorylation of p65 (Ser536) in U2OS osteosarcoma cells. […] (0.3–30 µM) for 1 h prior to treatment with FCS (10% (v/v)) for 4 h, and phospho-p100 (Ser866/870) was assessed by Western blotting. […]

[2] = system: IKKα-mediated p100 phosphorylation (Ser866/870) in U2OS cells; assay: FCS-stimulated p100 phosphorylation (Ser866/870), Western blotting; type: cell-based; conditions: Homo sapiens, 1 h pre-treatment, FCS 10% 4 h
Description: as §1, §2
For examination of potential effects of compound on non-canonical NF-κB signalling, cells were exposed to vehicle (DMSO; 0.03–0.05% (v/v)) or increasing concentrations of compounds (0.01–30 µM) for 1 h prior to treatment with FCS (10% (v/v); for U2OS cells) or LTα1β2 (20 ng/mL; for PC-3M cells) for 4 h. The status of p-p100 (Ser 866/870) in whole-cell extracts prepared from 12-well plates was assessed by Western blotting, as described in McKenzie et al.. […] Thereafter, p52 and RelB status in crude nuclear extracts normalised for protein amounts were assessed by Western blotting.
as §4, with “IC50 values were established by curve fitting using the Hill equation.” left out

[3] = system: IKKβ-mediated p65 phosphorylation (Ser536) in U2OS cells; assay: TNFα-stimulated p65 (Ser536) phosphorylation, Western blotting; type: cell-based; conditions: Homo sapiens, 1 h pre-treatment, TNFα 30 min
Description: as §1, §2, §3, §4, §5

Ret(h) = Ret(h) (Homo sapiens, UniProt P07949); assay: kinase panel; type: biochemical
Chain of Ret(h) (P07949 29-1114): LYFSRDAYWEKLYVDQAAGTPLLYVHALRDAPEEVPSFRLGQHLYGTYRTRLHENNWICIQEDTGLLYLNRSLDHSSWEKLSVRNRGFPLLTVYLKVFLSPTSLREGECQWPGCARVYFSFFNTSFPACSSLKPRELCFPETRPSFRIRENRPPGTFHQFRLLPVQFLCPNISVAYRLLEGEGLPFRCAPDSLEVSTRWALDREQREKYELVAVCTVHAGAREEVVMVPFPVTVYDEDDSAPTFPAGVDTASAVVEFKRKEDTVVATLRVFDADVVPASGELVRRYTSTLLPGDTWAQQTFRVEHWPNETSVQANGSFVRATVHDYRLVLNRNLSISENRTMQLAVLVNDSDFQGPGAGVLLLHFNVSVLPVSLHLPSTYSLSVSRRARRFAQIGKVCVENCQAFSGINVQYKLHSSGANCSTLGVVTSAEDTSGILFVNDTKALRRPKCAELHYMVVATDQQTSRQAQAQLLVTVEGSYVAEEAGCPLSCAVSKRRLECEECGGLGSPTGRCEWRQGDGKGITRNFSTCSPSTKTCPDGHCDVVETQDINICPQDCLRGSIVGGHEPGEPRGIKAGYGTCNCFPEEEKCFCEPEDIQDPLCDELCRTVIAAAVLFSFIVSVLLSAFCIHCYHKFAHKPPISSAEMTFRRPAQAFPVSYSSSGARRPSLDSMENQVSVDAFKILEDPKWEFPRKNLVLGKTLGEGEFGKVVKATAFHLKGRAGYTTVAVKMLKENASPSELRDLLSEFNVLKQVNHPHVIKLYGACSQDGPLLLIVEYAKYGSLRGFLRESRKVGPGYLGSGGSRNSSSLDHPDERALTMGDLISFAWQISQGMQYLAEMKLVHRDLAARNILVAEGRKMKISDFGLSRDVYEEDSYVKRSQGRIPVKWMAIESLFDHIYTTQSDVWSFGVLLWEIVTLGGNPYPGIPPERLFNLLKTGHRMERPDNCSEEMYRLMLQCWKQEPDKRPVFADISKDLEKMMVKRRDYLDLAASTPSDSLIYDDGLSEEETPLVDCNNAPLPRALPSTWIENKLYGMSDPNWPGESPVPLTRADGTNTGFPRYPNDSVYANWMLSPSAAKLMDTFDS
From the text: (§6) We profiled three compounds from the series across the kinome (Table S1).
(§7) Ta b l e S1. The % inhibition of compounds 4, 5r [SU1261], and 6g [SU1349] against a
(§8) panel of kinase enzymes. We proϐiled three compounds from the series across 231
(§9) kinases. For SU1349, given its structural similarity with SU1261, we selected 98 from the
(§10) Tested kinase % inhibiƟon

CLK2(h) = CLK2(h) (Homo sapiens, UniProt P49760); assay: kinase panel; type: biochemical
Chain of CLK2(h) (P49760 whole entry): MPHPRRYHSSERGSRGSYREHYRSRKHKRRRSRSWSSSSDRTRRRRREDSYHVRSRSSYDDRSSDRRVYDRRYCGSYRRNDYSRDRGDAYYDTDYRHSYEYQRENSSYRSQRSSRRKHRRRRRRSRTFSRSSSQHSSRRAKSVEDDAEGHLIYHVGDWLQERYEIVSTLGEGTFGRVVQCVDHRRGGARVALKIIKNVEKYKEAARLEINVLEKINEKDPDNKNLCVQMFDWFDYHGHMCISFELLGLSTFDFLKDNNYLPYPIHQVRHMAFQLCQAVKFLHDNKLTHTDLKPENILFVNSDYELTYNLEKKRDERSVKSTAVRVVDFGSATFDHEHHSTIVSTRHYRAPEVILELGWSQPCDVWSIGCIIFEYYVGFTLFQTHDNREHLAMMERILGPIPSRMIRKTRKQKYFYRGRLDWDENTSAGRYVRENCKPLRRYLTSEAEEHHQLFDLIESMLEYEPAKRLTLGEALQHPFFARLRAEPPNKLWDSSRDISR
From the text: as §6, §7, §8, §9, §10

ROCK-I(h) = ROCK-I(h) (Homo sapiens, UniProt Q13464); assay: kinase panel; type: biochemical
Chain of ROCK-I(h) (Q13464 whole entry): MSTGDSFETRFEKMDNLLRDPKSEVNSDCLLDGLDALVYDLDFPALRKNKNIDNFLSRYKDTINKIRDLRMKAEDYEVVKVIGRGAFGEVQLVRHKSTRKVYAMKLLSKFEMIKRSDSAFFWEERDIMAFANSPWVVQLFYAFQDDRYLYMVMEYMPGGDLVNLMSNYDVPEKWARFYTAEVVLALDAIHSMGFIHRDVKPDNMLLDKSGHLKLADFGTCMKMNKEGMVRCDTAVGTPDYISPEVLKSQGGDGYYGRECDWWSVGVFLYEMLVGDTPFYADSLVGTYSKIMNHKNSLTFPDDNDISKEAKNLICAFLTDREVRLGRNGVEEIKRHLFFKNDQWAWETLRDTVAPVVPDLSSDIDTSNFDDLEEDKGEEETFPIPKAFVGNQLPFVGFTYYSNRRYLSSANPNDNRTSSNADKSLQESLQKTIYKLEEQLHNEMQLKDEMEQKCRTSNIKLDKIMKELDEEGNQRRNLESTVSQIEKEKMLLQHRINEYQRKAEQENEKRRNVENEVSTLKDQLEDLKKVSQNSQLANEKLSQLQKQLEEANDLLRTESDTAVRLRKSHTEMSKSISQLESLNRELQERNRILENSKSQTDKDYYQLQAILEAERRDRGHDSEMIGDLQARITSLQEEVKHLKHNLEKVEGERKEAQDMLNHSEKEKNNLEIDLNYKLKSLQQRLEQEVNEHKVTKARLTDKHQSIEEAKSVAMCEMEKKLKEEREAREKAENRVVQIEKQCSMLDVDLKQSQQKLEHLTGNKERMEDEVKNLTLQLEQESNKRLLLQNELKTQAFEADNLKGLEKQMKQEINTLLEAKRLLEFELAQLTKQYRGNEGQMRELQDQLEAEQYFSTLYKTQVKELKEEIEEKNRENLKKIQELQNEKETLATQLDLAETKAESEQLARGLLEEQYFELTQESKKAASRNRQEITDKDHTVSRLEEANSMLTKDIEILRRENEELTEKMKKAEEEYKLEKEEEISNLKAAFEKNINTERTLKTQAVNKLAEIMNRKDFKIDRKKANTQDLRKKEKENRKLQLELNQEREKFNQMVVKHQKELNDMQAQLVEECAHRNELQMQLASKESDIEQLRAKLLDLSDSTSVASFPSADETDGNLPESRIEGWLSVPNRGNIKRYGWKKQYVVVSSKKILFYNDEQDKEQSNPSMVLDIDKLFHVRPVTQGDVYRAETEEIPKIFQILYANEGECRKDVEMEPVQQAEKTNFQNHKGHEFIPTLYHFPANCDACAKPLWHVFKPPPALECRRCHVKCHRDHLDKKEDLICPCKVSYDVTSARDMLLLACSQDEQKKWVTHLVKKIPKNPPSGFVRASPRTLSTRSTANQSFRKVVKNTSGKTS
From the text: as §6, §7, §8, §9, §10

MST2(h) = biological target: T1, MST2(h) (Homo sapiens, UniProt Q13188); assay: kinase panel; type: biochemical
T1 sequence (Q13188 1-491): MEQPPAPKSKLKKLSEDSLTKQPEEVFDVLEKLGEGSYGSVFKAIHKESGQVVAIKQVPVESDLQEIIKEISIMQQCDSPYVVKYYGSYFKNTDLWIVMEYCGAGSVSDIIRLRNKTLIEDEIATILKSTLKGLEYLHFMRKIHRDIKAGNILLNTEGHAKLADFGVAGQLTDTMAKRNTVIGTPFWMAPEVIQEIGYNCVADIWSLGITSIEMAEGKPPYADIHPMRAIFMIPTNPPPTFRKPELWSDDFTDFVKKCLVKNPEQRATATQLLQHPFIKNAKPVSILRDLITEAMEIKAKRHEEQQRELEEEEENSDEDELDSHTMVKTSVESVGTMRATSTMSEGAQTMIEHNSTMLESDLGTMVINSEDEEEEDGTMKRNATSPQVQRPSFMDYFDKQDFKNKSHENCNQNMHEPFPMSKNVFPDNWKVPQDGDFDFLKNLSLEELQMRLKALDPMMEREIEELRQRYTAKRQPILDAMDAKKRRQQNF
From the text: as §6, §7, §8, §9, §10

Structure (SMILES) | IC50 ([1]; Homo sapiens, 1 h pre-treatment, TNFα 30 min) [nM] | IC50 [2] [nM] | IC50 [3] [nM] | inhibition at 1 µM (Ret(h)) [%] | inhibition at 1 µM (CLK2(h)) [%] | inhibition at 1 µM (ROCK-I(h)) [%] | inhibition at 1 µM (MST2(h)) [%] | effect on TNFα-stimulated IκBα degradation [1]
Nc1n[nH]c2ccc(-c3ccnc4[nH]c(-c5ccccc5)cc34)cc12 [Compound 4] | 620 | 690 | 300 | 52 | 97 | 13 | 5 | 
Nc1n[nH]c2ccc(-c3ccnc4[nH]c(-c5cccc(OCc6ccccc6)c5)cc34)cc12 [Compound 5r [SU1261]] |  | 2870 | 5640 | 41 | 80 | 28 | -1 | did not impact
Nc1n[nH]c2ccc(-c3ccnc4[nH]c(-c5ccnc(OCc6ccccc6)c5)cc34)cc12 [Compound 6g [SU1349]] |  | 8750 | > 30000 | -3 | 68 | 10 | 4 | no significant inhibition
